Reference: ChEMBL document CHEMBL4368904 (J Med Chem, 2019)

Key:
[1] = target: T1, 5-hydroxytryptamine receptor 2C (Homo sapiens, UniProt P28335); assay: Inhibition of 5HT2C (unknown origin)
T1 sequence (P28335 whole entry): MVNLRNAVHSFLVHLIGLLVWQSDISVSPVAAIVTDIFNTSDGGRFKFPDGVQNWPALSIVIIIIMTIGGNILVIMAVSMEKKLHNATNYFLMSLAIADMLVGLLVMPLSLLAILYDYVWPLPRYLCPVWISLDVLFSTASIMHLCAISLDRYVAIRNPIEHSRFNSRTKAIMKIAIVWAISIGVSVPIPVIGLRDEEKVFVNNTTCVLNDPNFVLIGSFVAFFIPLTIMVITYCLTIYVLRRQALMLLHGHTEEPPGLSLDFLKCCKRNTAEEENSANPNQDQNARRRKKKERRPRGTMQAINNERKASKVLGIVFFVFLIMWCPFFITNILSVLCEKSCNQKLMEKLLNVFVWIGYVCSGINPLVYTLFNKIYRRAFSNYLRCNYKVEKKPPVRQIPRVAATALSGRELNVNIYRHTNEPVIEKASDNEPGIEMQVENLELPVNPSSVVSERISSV

[2] = target: Sigma intracellular receptor 2 (Homo sapiens, UniProt Q5BJF2); assay: Inhibition of sigma receptor 2 (unknown origin)
Sigma intracellular receptor 2, sequence (Q5BJF2 whole entry): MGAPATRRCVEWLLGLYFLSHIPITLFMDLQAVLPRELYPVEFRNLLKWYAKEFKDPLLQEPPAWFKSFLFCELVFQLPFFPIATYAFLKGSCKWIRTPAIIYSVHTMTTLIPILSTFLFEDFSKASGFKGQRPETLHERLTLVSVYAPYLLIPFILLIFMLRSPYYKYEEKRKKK

[3] = target: Sigma non-opioid intracellular receptor 1 (Homo sapiens, UniProt Q99720); assay: Inhibition of sigma receptor 1 (unknown origin)
Sigma non-opioid intracellular receptor 1, sequence (Q99720 whole entry): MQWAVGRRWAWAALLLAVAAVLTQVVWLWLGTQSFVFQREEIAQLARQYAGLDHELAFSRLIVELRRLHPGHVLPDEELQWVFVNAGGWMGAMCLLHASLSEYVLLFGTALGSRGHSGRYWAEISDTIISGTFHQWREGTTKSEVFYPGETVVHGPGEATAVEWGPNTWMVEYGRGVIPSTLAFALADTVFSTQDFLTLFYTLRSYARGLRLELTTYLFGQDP

[4] = target: T2, Adenosine receptor A1 (Homo sapiens, UniProt P30542); assay: Displacement of [3H]N6-R-phenylisopropyladenosine from human A1A adenosine receptor expressed in CHO cell membranes after 60 mins by scintillation proximity assay
T2 sequence (P30542 whole entry): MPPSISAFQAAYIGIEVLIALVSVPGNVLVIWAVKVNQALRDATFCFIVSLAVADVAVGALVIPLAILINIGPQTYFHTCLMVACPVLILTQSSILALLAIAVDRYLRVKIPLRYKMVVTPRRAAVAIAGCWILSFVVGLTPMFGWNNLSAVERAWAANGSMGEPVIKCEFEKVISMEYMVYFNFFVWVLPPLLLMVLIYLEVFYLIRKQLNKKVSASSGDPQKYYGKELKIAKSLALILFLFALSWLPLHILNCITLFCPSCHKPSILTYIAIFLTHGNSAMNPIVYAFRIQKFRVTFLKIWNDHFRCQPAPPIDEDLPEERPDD

[5] = target: T3, Adenosine receptor A2a (Homo sapiens, UniProt P29274); assay: Displacement of [3H]2-[p-(2-carboxyethyl)phenylethylamino]-5-N-ethylcarboxamidoadenosine from human A2A adenosine receptor expressed in HEK293 cell membranes after 60 mins by scintillation proximity assay
T3 sequence (P29274 whole entry): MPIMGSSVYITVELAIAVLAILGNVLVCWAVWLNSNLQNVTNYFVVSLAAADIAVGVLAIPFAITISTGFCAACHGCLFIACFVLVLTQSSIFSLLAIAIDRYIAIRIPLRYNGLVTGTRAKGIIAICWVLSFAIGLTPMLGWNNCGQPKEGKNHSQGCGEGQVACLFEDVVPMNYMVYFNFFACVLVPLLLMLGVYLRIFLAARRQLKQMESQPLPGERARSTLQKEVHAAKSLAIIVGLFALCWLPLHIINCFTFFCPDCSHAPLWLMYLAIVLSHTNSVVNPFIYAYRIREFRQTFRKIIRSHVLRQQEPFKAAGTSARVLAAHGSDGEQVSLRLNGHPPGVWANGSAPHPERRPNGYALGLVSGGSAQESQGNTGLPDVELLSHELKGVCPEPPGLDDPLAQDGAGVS

[6] = target: T4, Adenosine receptor A1 (Homo sapiens) (UniProt P30542); assay: Displacement of [3H]N6-R-phenylisopropyladenosine from human A1A adenosine receptor expressed in CHO cell membranes at 10 uM after 60 mins by scintillation proximity assay relative to adenosine 5-N-ethyluronamide
T4 sequence (whole entry): T2 sequence (P30542 whole entry)

[7] = target: T3, Adenosine receptor A2a; assay: Displacement of [3H]2-[p-(2-carboxyethyl)phenylethylamino]-5-N-ethylcarboxamidoadenosine from human A2A adenosine receptor expressed in HEK293 cell membranes at 10 uM after 60 mins by scintillation proximity assay relative to adenosine 5-N-ethyluronamide
[8] = target: Adenosine receptor A2a (Mus musculus) (UniProt Q60613); assay: Displacement of [3H]2-[p-(2-carboxyethyl)phenylethylamino]-5-N-ethylcarboxamidoadenosine from mouse A2A adenosine receptor expressed in HEK293 cell membranes at 10 uM after 60 mins by scintillation proximity assay relative to adenosine 5-N-ethyluronamide
Adenosine receptor A2a (Mus musculus), sequence (Q60613 whole entry): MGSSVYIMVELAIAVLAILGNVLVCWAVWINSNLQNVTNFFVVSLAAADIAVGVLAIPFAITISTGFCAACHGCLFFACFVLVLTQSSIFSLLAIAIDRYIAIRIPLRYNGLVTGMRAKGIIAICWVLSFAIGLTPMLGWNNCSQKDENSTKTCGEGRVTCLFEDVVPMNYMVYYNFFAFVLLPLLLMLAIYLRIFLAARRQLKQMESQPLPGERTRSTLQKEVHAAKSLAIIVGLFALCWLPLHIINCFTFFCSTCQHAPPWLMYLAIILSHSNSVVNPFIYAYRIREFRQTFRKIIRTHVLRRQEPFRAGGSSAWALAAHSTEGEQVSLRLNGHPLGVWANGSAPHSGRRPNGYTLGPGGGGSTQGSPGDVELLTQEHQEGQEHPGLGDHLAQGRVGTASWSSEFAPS

[9] = target: Translocator protein (Homo sapiens, UniProt P30536); assay: Inhibition of TSPO (unknown origin)
Translocator protein, sequence (P30536 whole entry): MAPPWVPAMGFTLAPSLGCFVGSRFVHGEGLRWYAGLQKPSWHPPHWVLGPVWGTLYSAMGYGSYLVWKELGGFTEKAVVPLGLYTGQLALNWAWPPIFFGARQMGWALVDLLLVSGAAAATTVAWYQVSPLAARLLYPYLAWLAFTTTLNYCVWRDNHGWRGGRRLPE

[10] = test system: Mus musculus; assay: Induction of hypothermia in C57BL/6J mouse assessed as body temperature at 10 mg/kg, ip measured at 60 mins post dose (reference value: 36.3 +/- 0.8 degC); format: functional
[11] = test system: Mus musculus; assay: Induction of hypothermia in C57BL/6J mouse assessed as activity counts at 10 mg/kg, ip measured at 60 mins post dose (reference value: 15.5 +/- 5.5); format: functional
[12] = target: T5, Adenosine receptor A1 (Mus musculus) (UniProt Q60612); assay: Agonist activity at mouse A1A adenosine receptor at 10 uM after 60 mins by [35S]GTPgammaS binding assay relative to (2S,3S,4R,5R)-5-(6-amino-9H-purin-9-yl)-N-ethyl-3,4-dihydroxytetrahydrofuran-2-carboxamide; format: functional
T5 sequence (whole entry): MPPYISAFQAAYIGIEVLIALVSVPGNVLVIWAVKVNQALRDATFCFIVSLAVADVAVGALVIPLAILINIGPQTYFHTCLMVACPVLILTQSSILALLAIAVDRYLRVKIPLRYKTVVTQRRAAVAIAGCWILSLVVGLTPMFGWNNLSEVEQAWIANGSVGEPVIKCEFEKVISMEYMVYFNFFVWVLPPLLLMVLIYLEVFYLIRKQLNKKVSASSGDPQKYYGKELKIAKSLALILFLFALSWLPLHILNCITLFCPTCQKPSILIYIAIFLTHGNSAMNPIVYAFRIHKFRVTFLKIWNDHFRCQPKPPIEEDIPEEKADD

[13] = target: T6, Adenosine receptor A3 (Mus musculus) (UniProt Q61618); assay: Agonist activity at mouse A3AR adenosine receptor at 10 uM after 60 mins by [35S]GTPgammaS binding assay relative to (2S,3S,4R,5R)-5-(6-amino-9H-purin-9-yl)-N-ethyl-3,4-dihydroxytetrahydrofuran-2-carboxamide; format: functional
T6 sequence (whole entry): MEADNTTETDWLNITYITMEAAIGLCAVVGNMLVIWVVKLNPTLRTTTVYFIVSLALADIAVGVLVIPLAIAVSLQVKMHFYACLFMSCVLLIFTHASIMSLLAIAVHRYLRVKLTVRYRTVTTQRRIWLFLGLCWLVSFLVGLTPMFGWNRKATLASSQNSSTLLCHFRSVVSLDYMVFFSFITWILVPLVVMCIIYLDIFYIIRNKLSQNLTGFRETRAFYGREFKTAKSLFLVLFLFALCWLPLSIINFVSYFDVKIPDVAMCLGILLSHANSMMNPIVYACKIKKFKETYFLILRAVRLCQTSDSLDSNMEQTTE

[14] = species: Mus musculus; assay: Selectivity index, ratio of Ki for mouse A3A adenosine receptor to Ki for mouse A1A adenosine receptor expressed in CHO cell membranes after 60 mins by scintillation proximity assay
[15] = test system: Mus musculus; assay: Induction of hypothermia in C57BL/6J mouse assessed as body temperature at 3 mg/kg, ip measured at 60 mins post dose (reference value: 36.3 +/- 0.8 degC); format: functional
[16] = test system: Mus musculus; assay: Induction of hypothermia in C57BL/6J mouse assessed as activity counts at 3 mg/kg, ip measured at 60 mins post dose (reference value: 15.5 +/- 5.5); format: functional
[17] = Fraction unbound in human plasma at 10 uM; format: ADME, cell-free
[18] = Fraction unbound in mouse plasma at 10 uM; format: ADME, cell-free
[19] = Fraction unbound in rat plasma at 10 uM; format: ADME, cell-free
[20] = target: T7, Adenosine receptor A3 (Homo sapiens, UniProt P0DMS8); assay: Displacement of [125I]N6-(4-amino-3-iodobenzyl)adenosine-5-N-methyluronamide from human A3A adenosine receptor expressed in CHO cell membranes after 60 mins by scintillation proximity assay
T7 sequence (P0DMS8 whole entry): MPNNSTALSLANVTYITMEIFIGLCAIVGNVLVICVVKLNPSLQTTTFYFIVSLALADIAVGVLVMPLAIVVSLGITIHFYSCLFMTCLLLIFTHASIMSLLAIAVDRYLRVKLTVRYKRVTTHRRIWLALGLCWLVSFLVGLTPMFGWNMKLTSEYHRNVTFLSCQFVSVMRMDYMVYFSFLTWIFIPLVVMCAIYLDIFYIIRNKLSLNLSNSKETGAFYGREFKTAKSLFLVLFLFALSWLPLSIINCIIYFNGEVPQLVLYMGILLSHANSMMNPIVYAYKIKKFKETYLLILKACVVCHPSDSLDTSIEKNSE

[21] = target: T8, Adenosine receptor A1 (Mus musculus, UniProt Q60612); assay: Displacement of [3H]N6-R-phenylisopropyladenosine from mouse A1A adenosine receptor expressed in CHO cell membranes after 60 mins by scintillation proximity assay
T8 sequence (Q60612 whole entry): T5 sequence (whole entry)

[22] = target: T9, Adenosine receptor A3 (Mus musculus, UniProt Q61618); assay: Displacement of [125I]N6-(4-amino-3-iodobenzyl)adenosine-5-N-methyluronamide from mouse A3A adenosine receptor expressed in CHO cell membranes after 60 mins by scintillation proximity assay
T9 sequence (Q61618 whole entry): T6 sequence (whole entry)

[23] = target: 5-hydroxytryptamine receptor 2B (Homo sapiens, UniProt P41595); assay: Inhibition of 5HT2B (unknown origin)
5-hydroxytryptamine receptor 2B, sequence (P41595 whole entry): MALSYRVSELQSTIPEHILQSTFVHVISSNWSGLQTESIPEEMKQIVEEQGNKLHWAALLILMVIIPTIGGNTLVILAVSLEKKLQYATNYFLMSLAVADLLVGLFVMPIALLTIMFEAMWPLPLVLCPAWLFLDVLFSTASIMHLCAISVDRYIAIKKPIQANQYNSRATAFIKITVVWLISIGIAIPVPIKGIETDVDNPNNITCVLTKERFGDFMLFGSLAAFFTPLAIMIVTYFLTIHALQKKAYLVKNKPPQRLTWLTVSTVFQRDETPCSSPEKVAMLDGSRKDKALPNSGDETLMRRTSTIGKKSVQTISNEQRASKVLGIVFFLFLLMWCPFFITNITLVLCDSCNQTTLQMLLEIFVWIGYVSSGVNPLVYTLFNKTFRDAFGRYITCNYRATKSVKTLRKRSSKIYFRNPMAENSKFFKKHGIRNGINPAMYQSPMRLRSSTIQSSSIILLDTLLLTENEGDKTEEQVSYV

[24] = target: T10, Adenosine receptor A3 (Homo sapiens) (UniProt P0DMS8); assay: Displacement of [125I]N6-(4-amino-3-iodobenzyl)adenosine-5-N-methyluronamide from human A3A adenosine receptor expressed in CHO cell membranes at 10 uM after 60 mins by scintillation proximity assay relative to adenosine 5-N-ethyluronamide
T10 sequence (whole entry): T7 sequence (P0DMS8 whole entry)

[25] = target: T6, Adenosine receptor A3 (Mus musculus); assay: Displacement of [125I]N6-(4-amino-3-iodobenzyl)adenosine-5-N-methyluronamide from mouse A3A adenosine receptor expressed in CHO cell membranes at 10 uM after 60 mins by scintillation proximity assay relative to adenosine 5-N-ethyluronamide

O[C@@H]1[C@H](O)[C@@H]2C[C@@H]2[C@H]1n1cnc2c(NC(C3CCCC3)C3CCCC3)nc(Cl)nc21
Ki [1]: 2.92 µM
Ki [2]: 2.01 µM
Ki [3]: 5.09 µM

O[C@@H]1[C@H](O)[C@@H](CSc2ccccc2F)O[C@H]1n1cnc2c(N[C@@H]3CCC[C@H]3O)ncnc21 [GS-9667]
Ki [4]: 0.012 µM
Ki [5]: > 10 µM

O[C@H]1[C@H](n2cnc3c(NC(C4CCC4)C4CCC4)nc(Cl)nc32)[C@H]2C[C@@]2(CSc2ccccc2F)[C@H]1O
inhibition [6]: 45%
inhibition [7]: 22%
inhibition [8]: 20%
Ki [2]: 0.583 µM

CCOC(=O)[C@@]12C[C@@H]1[C@@H](n1cnc3c(NC(C4CCC4)C4CCC4)nc(Cl)nc31)[C@H](O)[C@@H]2O
inhibition [7]: 57%
Ki [2]: 2.02 µM

O[C@@H]1[C@H](O)[C@@H](CCl)O[C@H]1n1cnc2c(NC(C3CCC3)C3CCC3)ncnc21
Ki [2]: 0.662 µM
Ki [9]: 3.98 µM
T [10]: 35.8 °C
Activity [11]: 20.5

OC[C@H]1O[C@@H](n2cnc3c(NC(C4CCC4)C4CCC4)nc(Cl)nc32)[C@H](O)[C@@H]1O
Emax [12]: 90%
Emax [13]: 63%
Ratio Ki [14]: 1000
T [15]: 35.5 °C
Activity [16]: 13.5
Fu [17]: 5.81%
Fu [18]: 4.74%
Fu [19]: 4.64%

Nc1nc(Cl)nc2c1ncn2[C@H]1[C@H](O)[C@H](O)[C@]2(CCl)C[C@H]12
Ki [4]: 0.00761 µM
Ki [5]: 1.75 µM
Ki [20]: 0.253 µM
Ki [2]: 2.55 µM
Ki [3]: 1.97 µM

CNC(=O)[C@]12C[C@@H]1[C@@H](n1cnc3c(NC4CCCC4)nc(Cl)nc31)[C@H](O)[C@@H]2O
Ki [21]: 0.00068 µM
Ki [22]: 0.00346 µM
Ki [23]: 0.012 µM

Nc1ncnc2c1ncn2[C@@H]1O[C@H](C(=O)O)[C@@H](O)[C@H]1O [5'-CARBOXY ADENOSINE]
inhibition [6]: 24%
inhibition [7]: 11%
inhibition [24]: 32%
Ki [2]: 0.796 µM

O[C@@H]1[C@H](O)[C@@H](CCl)O[C@H]1n1cnc2c(NC3C[C@H]4CC[C@@H]3C4)ncnc21 (mixture of isomers)
Ki [5]: 1.34 µM
Ki [20]: 1.29 µM
Ki [22]: 2.41 µM
T [15]: 32.2 °C
Activity [16]: 2.8

O[C@H]1[C@H](n2cnc3c(N[C@H]4C[C@H]5CC[C@@H]4C5)nc(Cl)nc32)[C@H]2C[C@@]2(CCl)[C@H]1O
inhibition [7]: 54%
inhibition [8]: 15%
Emax [12]: 123%
Emax [13]: 50%
Ratio Ki [14]: 270
T [15]: 36.6 °C
Activity [16]: 16.8
Fu [17]: 4.04%
Fu [18]: 2.95%
Fu [19]: 2.53%

CCOC(=O)[C@@]12C[C@@H]1[C@@H](n1cnc3c(NC(C4CC4)C4CC4)nc(Cl)nc31)[C@H](O)[C@@H]2O
Ki [1]: 0.054 µM

O[C@H]1[C@H](n2cnc3c(NC(C4CCC4)C4CCC4)ncnc32)[C@H]2C[C@@]2(CCl)[C@H]1O
inhibition [7]: 38%
inhibition [24]: 49%
Ki [2]: 1.17 µM
Ki [9]: 2.02 µM
T [15]: 35.9 °C
Activity [16]: 14.8

OC[C@@]12C[C@@H]1[C@@H](n1cnc3c(N[C@H]4C[C@H]5CC[C@@H]4C5)nc(Cl)cc31)[C@H](O)[C@@H]2O
inhibition [7]: 29%

OC[C@@]12C[C@@H]1[C@@H](n1cnc3c(NC(C4CCC4)C4CCC4)nc(Cl)nc31)[C@H](O)[C@@H]2O
inhibition [7]: 55%
inhibition [8]: 26%
inhibition [24]: 25%
Ki [9]: 2.93 µM
T [10]: 36.6 °C
Activity [11]: 18.4

O=C(NCCO)[C@@]12C[C@@H]1[C@@H](n1cnc3c(N[C@H]4C[C@H]5CC[C@@H]4C5)nc(Cl)nc31)[C@H](O)[C@@H]2O
inhibition [8]: 23%

OC[C@H]1O[C@@H](n2cnc3c(N[C@H]4C[C@H]5CC[C@@H]4C5)ncnc32)[C@H](O)[C@@H]1O
Ki [21]: 0.00014 µM
Ki [22]: 0.424 µM

O[C@H]1[C@H](n2cnc3c(NC(C4CCC4)C4CCC4)nc(Cl)nc32)[C@H]2C[C@@]2(CCl)[C@H]1O
inhibition [7]: 17%
inhibition [8]: 20%
Ki [2]: 0.349 µM
Ki [9]: 2.89 µM
T [10]: 36.5 °C
Activity [11]: 18.9

NC(=O)c1ncn([C@@H]2O[C@H](CO)[C@@H](O)[C@H]2O)n1
inhibition [7]: 23%
inhibition [24]: 16%
inhibition [25]: 0%

COC(=O)c1ncn([C@H]2[C@H](O)[C@H](O)[C@]3(CO)C[C@H]23)n1
inhibition [6]: 6%
inhibition [7]: 14%
inhibition [24]: 22%
inhibition [25]: 15%
Ki [2]: 1.72 µM
